Test results taken from patent US7642277B2, “Non-nucleoside reverse transcriptase inhibitors” (Boehringer Ingelheim International GmbH, priority 2002, dated 2010).
Like-named read-outs stand apart in the source and are kept apart here.

Assays:
[1] = target: T1, HIV-1 RT enzyme (wild type) (Human immunodeficiency virus type 1 group M subtype B, UniProt P04585); assay: Reverse transcriptase (RT) enzymatic assay (IC50), PicoGreen fluorescence, wild type; assay type: biochemical
T1 construct: The reverse transcriptase (RT) enzyme assay has been adapted to a 96-well microtiter plate format
In short: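 Enzyme at ≈10 nM in 50 mM Tris/HCl pH 7.8 with 60 mM NaCl, 2 mM MgCl2, 6 mM DTT, 2 mM GSH, 0.02% Chaps; 15 min preincubation with compound at room temperature, then substrate added and run 50 min at 37 °C. EDTA quench; product DNA read by PicoGreen fluorescence.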

[2] = target: T2, HIV-1 RT resistant mutant K103N/Y181C (Human immunodeficiency virus type 1 group M subtype B, UniProt P04585, K690N/Y768C); assay: Reverse transcriptase (RT) enzymatic assay (IC50), PicoGreen fluorescence, resistant mutant; assay type: biochemical
T2 construct: The reverse transcriptase (RT) enzyme assay has been adapted to a 96-well microtiter plate format

HIV-1 (wild type) = assay: P24 cellular assay (EC50), data identified with * in Table 9, wild type; assay type: cell-based; conditions: Human immunodeficiency virus 1
Source text: (§1) P24 Cellular Assay (EC50) (Data Identified with * in Table 9).
(§2) The p24 assay is as described in WO 01/96338, the contents of which are herein incorporated by reference.
(§3) The results are listed in Table 9 as IC50(nM) and EC50 (nM).
(§4) Table legend: A=>100; B=100-50; C=<50; NT=not tested

[3] = test system: HIV-1 resistant mutant K103N/Y181C; assay: P24 cellular assay (EC50), data identified with * in Table 9, resistant mutant; assay type: cell-based; conditions: Human immunodeficiency virus 1, read-out: EC50 K103N/Y181C
Source text: as §1, §2, §3, §4

| SMILES | IC50 [1] [nM] | IC50 [2] [nM] | EC50 (HIV-1 (wild type)) [nM] | EC50 [3] [nM] | IC50 ([1]; RT enzymatic assay, wild type, read-out: IC50 WT) [nM] |
| --- | --- | --- | --- | --- | --- |
| O=C(CSc1nnnn1-c1ccc2ccccc2c1)Nc1ccccc1[N+](=O)[O-] [Entry 103] | < 50 | > 100 | < 50 | > 100 |  |
| Cc1ccc(-n2nnnc2SCC(=O)Nc2ccccc2[N+](=O)[O-])c(Cl)c1 [Entry 129] | < 50 | > 100 | < 50 | < 50 |  |
| Cc1ccc(F)cc1-n1nnnc1SCC(=O)Nc1ccccc1[N+](=O)[O-] [Entry 135] | < 50 | > 100 | < 50 | > 100 |  |
| Cc1c(Cl)cccc1-n1nnnc1SCC(=O)Nc1ccccc1[N+](=O)[O-] [Entry 124] | < 50 | > 100 | < 50 | 50 to 100 |  |
| Cc1ccc(-n2nnnc2SCC(=O)Nc2ccccc2[N+](=O)[O-])c(C)c1 [Entry 125] | < 50 | > 100 | < 50 | > 100 |  |
| Cc1ccccc1-n1nnnc1SCC(=O)Nc1ccccc1[N+](=O)[O-] [Entry 109] | 50 to 100 | > 100 | < 50 | > 100 |  |
| COc1cc(-n2nnnc2SCC(=O)Nc2ccccc2[N+](=O)[O-])c(Cl)cc1Cl [Entry 133] | < 50 | > 100 | < 50 | > 100 |  |
| Cc1cc(Br)cc(C)c1-n1nnnc1SCC(=O)Nc1ccccc1[N+](=O)[O-] [Entry 140] | < 50 | > 100 | < 50 | < 50 |  |
| Cc1cc(C)c(-n2nnnc2SCC(=O)Nc2ccccc2Cl)c(C)c1 [Entry 421] |  | > 100 | < 50 | > 100 | < 50 |
| Cc1cc(Cl)ccc1-n1nnnc1SCC(=O)Nc1ccccc1[N+](=O)[O-] [Entry 128] | > 100 | > 100 | < 50 | > 100 |  |
